Source: patent US8795979B2, “Hydrolase enzyme substrates and uses thereof” (General Atomics, priority 2011, dated 2014)

Tests used:
Assay type in all cases: biochemical
[1] = target: T1, aryl alcohol dehydrogenase (AAD) (Pseudomonas putida, UniProt P39849); test: Kinetic constants of AAD; details: recombinant Pseudomonas putida AAD
T1 construct: made in house; host or cells: E. coli
T1 sequence (P39849 1-366): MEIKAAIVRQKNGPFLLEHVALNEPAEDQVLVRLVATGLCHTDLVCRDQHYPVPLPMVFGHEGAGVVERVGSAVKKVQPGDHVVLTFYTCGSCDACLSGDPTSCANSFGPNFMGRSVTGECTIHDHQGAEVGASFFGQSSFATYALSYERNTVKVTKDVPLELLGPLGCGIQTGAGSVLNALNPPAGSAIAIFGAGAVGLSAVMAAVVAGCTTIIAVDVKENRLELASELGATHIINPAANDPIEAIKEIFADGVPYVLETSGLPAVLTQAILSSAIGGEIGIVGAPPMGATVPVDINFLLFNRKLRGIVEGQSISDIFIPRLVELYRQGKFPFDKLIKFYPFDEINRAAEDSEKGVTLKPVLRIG
Source text: AAO was purified from Pleurotus eryngii using the procedures described in Guillen, F. et al., “Substrate specificity and properties of aryl-alcohol oxidase from the ligninolytic fungus Pleurotus eryngii,” Eur. J. Biochem., 209:603-611 (1992). The purification steps include concentration, anion exchange chromatography and hydrophobic interaction chromatography. DNA construct for recombinant production of Pseudomonas putida AAD was made based on the DNA sequence disclosed in Shaw, J. P. et al., Kinetic studies on benzyl alcohol dehydrogenase encoded by TOL plasmid pWW0,” J. Biol. Chem., 268:10842-10850 (1993), and the recombinant Pseudomonas putida AAD was made by overexpression in E. coli. The cycling system was combined with chemiluminescent (lumino)-hydrogen peroxide-horseradish peroxidase) reaction to form a sensitive assay.
For AAD, KNADH=9.1±2 μM; Kp-Anisyl aldehyde=6.6±0.8 μM; and kcat=30/s.

aryl alcohol oxidase = test: Incubation with aryl alcohol oxidase alone, H2O2 detection; details: no beta-galactosidase
Source text: (§1) The aryl alcohol dehydrogenase used in this example was recombinantly produced based on the description in Guillen and Evans, Appl. Environmental Microbiol., 60(8):2811-17 (1994) and Reiser et al., J. Biol. Chem., 269(45):28152-28159 (1994).

beta-galactosidase = test: Hydrolysis by beta-galactosidase coupled with aryl alcohol oxidase, H2O2 detection; details: 10 mM substrate, 10 unit/ml beta-galactosidase and 20 unit/ml aryl alcohol oxidase, 37° C., 30 min
Source text: as §1

SMILES: NC(=O)C1=CN([C@@H]2O[C@H](COP(=O)(O)OP(=O)(O)OC[C@H]3O[C@@H](n4cnc5c(N)ncnc54)[C@H](O)[C@@H]3O)[C@@H](O)[C@H]2O)C=CC1 [NADH, reference compound]
- KNADH (AAD) [1]: 9.1 ± 2 µM

SMILES: COc1ccc(C=O)cc1 [p-Anisyl aldehyde]
- Kp-Anisyl aldehyde (AAD) [1]: 6.6 ± 0.8 µM
- kcat (AAD) [1]: 30 s⁻¹

SMILES: COc1ccc(CO[C@@H]2OC(CO)[C@H](O)[C@@H](O)C2O)cc1 (stereo partly drawn) [p-MOBG, p-Methoxybenzyl-β-D-Galactopyranoside]
- H2O2 detected on incubation with aryl alcohol oxidase alone (aryl alcohol oxidase): no H2O2 detected
- generation of H2O2 (detected by peroxidase in the presence of 4-AA and TOOS at 560 nm) (beta-galactosidase): resulted in generation of H2O2
